Measurements: patent publication US20240366560A1, “SMALL MOLECULE TREATMENT OF FATTY LIVER DISEASE AND HCC” (ScandiEdge Therapeutics AB, priority 2021, published 2024)

How the values were obtained:
Assay type in all cases: cell-based
PKLR [1] = assay: PKLR protein level by western blot in steatosis-induced HepG2, 7-day drug treatment; conditions: steatosis-induced HepG2, 7 days of drug treatment, P<0.05, FIG. 2B
Procedure: WT HepG2 was included in this study and cultured by Roswell Park Memorial Institute (RPMI, R2405, Sigma Aldrich) 1640 Medium with 10% fetal bovine serum (FBS) and 1% penicillin-streptomycin (PS). To induce a steatosis model into WT HepG2 cells, high glucose Dulbecco's Modified Eagle Media (DMEM, D0822/D5671, Sigma-Aldrich) containing 10% FBS and 1% PS was used as medium for one week, together with 10 μg/mL insulin and 10 μM T0901317. All of cells were incubated in the incubator with 5% CO2 and 37° C. (Thermo SCIENTIFIC). Fresh medium was provided every two days.
As for drug-screening, different numbers of HepG2 cells were seeded for distinct experiments. More in details, 40,000 cells and 500,000 cells were used for 2-day-drug treatment in 96-well-plate and 6-well plate, respectively, while 80,000 cells and 300,000 cells were used for one-week drug treatment in 96-well plate and 6-well plate, respectively. Detailed drug dosages could be found in FIG. 5. Fresh medium was provided every two days.
Protein content levels were detected by western blot. After the respective treatment of drugs, the cell pellets were lysed in cell lytic M, followed by protein extraction from supernatant (10 min, 13,000r/min centrifuge). Extracted cell lysate was stored in −20° C. Proteins were quantified through Bovine albumin serum (BAS) standard curve with protein assay dye reagent (BIO-RAD). The proteins were separated by SDS-PAGE with 100v in 90 min by mini-protein TGX precast gels (4-15%, 15 wells, 15 μl/well, BIO-RAD), and then transfer to Mini PVDF transfer package through transfer system (Transfer-Turbo, BIO-RAD). After 30 min blocking with 5% skim milk in cold room (4° C.) and washing with TBST, membrane was cut by the size of interested proteins. Primary antibodies were added into the corresponding membrane sections for overnight binding. Then the membranes were washed with TBST, and the secondary antibodies were incubated for 1 h in cold room. The following antibody were used: (Goat pAb to Rb lg, ab205718, abcam; Rb pAb to beta-actin, ab8227, abcam; anti-pklr, HPA006653, SIGMA; Rb pAb to fatty acid synthase, ab99539, abcam). The bindings were imaged by immunostaining and machine (ImageQuant LAS 500). All antibodies were purchased from Abcam online, and βactin was used as global normalized protein. After measurement, the strength of signal for each protein was quantified by ImageJ. The background noise was removed, and all results were normalized by the levels of β-actin.
To further analyse the effect of these drugs on lipid accumulation via the DNL pathway, steatosis was induced to HepG2 by treating the cells with high glucose medium (DMEM), insulin and T0901317 (Hansmannel et al., 2006). […] Therefore, the effects of these two drugs on the de novo synthesis of lipids were investigated based on the steatosis-induced HepG2 model. […] Taken together, it was shown that BX-912 and JNK-IN-5A effectively alleviate the protein expression of PKLR and FASN as well as TG levels in HepG2 cell lines, and thus, it was decided to perform in vivo evaluations to test the effect of these two drugs.

PKLR [2] = assay: PKLR protein level by western blot in HepG2, 2-day drug treatment; conditions: HepG2, two days of treatment, dosages per FIG. 5, P<0.05, FIG. 2A
Procedure: WT HepG2 was included in this study and cultured by Roswell Park Memorial Institute (RPMI, […], Sigma Aldrich) 1640 Medium with 10% fetal bovine serum (FBS) and 1% penicillin-streptomycin (PS). To induce a steatosis model into WT HepG2 cells, high glucose Dulbecco's Modified Eagle Media (DMEM, […]/[…], Sigma-Aldrich) containing 10% FBS and 1% PS was used as medium for one week, together with 10 μg/mL insulin and 10 μM T0901317. All of cells were incubated in the incubator with 5% CO2 and 37° C. (Thermo […]). Fresh medium was provided every two days. As for drug-screening, different numbers of HepG2 cells were seeded for distinct experiments. More in details, 40,000 cells and 500,000 cells were used for 2-day-drug treatment in 96-well-plate and 6-well plate, respectively, while 80,000 cells and 300,000 cells were used for one-week drug treatment in 96-well plate and 6-well plate, respectively. […] Fresh medium was provided every two days. Protein content levels were detected by western blot. After the respective treatment of drugs, the cell pellets were lysed in cell lytic M, followed by protein extraction from supernatant (10 min, 13,000r/min centrifuge). Extracted cell lysate was stored in -20° C. Proteins were quantified through Bovine albumin serum (BAS) standard curve with protein assay dye reagent (BIO-RAD). The proteins were separated by SDS-PAGE with 100v in 90 min by mini-protein TGX precast gels (4-15%, 15 wells, 15 μl/well, BIO-RAD), and then transfer to Mini PVDF transfer package through transfer system (Transfer-Turbo, BIO-RAD). After 30 min blocking with 5% skim milk in cold room (4° C.) and washing with TBST, membrane was cut by the size of interested proteins. Primary antibodies were added into the corresponding membrane sections for overnight binding. Then the membranes were washed with TBST, and the secondary antibodies were incubated for 1 h in cold room. The following antibody were used: (Goat pAb to Rb lg, ab205718, abcam; Rb pAb to beta-actin, ab8227, abcam; […]; Rb pAb to fatty acid synthase, ab99539, abcam). The bindings were imaged by immunostaining and machine (ImageQuant LAS 500). All antibodies were purchased from Abcam online, and βactin was used as global normalized protein. After measurement, the strength of signal for each protein was quantified by ImageJ. The background noise was removed, and all results were normalized by the levels of β-actin. To determine the inhibitory effects of these drugs on the expression level of PKLR, HepG2 was selected as the in vitro model for coherence. […] HepG2 cells were treated with these drugs for two days with different dosages due to their potential cellular toxicities (FIG. 5), and the PKLR protein level was the measured by western blotting. The level of protein expression of PKLR of the drug-treated groups was compared to that of the Ctrl group after normalizing with β-actin.

steatosis-induced HepG2 = assay: Triglyceride assay in steatosis-induced HepG2; conditions: steatosis-induced HepG2, 7 days of drug treatment, FIG. 2D
Procedure: All of cells were incubated in the incubator with 5% CO2 and 37° C. (Thermo […]). Fresh medium was provided every two days.

SMILES | protein expression level of PKLR (PKLR [1]) | protein expression of PKLR vs Ctrl, normalized with β-actin (PKLR [2]) | content of TGs (normalized by cell viability) (steatosis-induced HepG2)
O=C(Nc1cccc(Nc2ncc(Br)c(NCCc3cnc[nH]3)n2)c1)N1CCCC1 [BX-912, N-[3-[[5-bromo-4-[[2-(1H-imidazol-5-yl)ethyl]amino]-2-pyrimidinyl]amino]phenyl]-1-pyrrolidinecarboxamide] | significantly decreased | significantly down-regulated | significantly decreased
N#Cc1c(NC(=O)c2cccc3ccccc23)sc2c1CCCC2 [JNK-IN-5A, N-(3-cyano-4,5,6,7-tetrahydrobenzo [b]thien-2-yl)-1-naphthalenecarboxamide] | significantly decreased | significantly down-regulated | significantly decreased
